Marks after values point to notes of the source that are not given here.
Experiments:
Assay type in all cases: in vivo
Conditions in all cases: 100 = 100% disease control
[1] = test system: Septoria nodorum; assay: Test D: wheat glume blotch, preventive spray on wheat seedlings, visual disease rating
Source text: (§1) General protocol for preparing test suspensions for Tests A-E: the test compounds were first dissolved in acetone in an amount equal to 11% of the final volume and then suspended at the desired concentration (in ppm) in acetone and purified water (50/50 mix by volume) containing 250 ppm of the surfactant Trem® 014 (polyhydric alcohol esters). The resulting test suspensions were then used in Tests A-E. Spraying a 200 ppm test suspension to the point of run-off on the test plants was the equivalent of a rate of 800 g/ha.
The test suspension was sprayed to the point of run-off on wheat seedlings. The following day the seedlings were inoculated with a spore suspension of Septoria nodorum (the causal agent of wheat glume blotch) and incubated in a saturated atmosphere at 20° C. for 48 h, and then moved to a growth chamber at 20° C. for 7 days, after which time disease ratings were visually made.
(§2) Results for Tests A-E are given in Table A. In the Table, a rating of 100 indicates 100% disease control and a rating of 0 indicates no disease control (relative to the controls). A dash (-) indicates no test results. All results are for 200 ppm except where followed by an “*”, which indicates 40 ppm or “**”, which indicates 50 ppm.

[2] = test system: Septoria tritici; assay: Test C: wheat leaf blotch, preventive spray on wheat seedlings, visual disease rating
Source text: as §1
(§3) The test suspension was sprayed to the point of run-off on wheat seedlings. The following day the seedlings were inoculated with a spore suspension of Septoria tritici (the causal agent of wheat leaf blotch) and incubated in a saturated atmosphere at 24° C. for 48 h, and then moved to a growth chamber at 20° C. for 19 days, after which time disease ratings were visually made.
as §2

[3] = test system: Puccinia recondita f sp. tritici; assay: Test B: wheat leaf rust, preventive spray on wheat seedlings, visual disease rating
Source text: as §1
as §3, with “Puccinia recondita f sp.” for “Septoria”, “rust)” for “blotch)”, “20°” for “24°”, “24” for “48”, “7” for “19”
as §2

[4] = test system: Erysiphe graminis f. sp. tritici; assay: Test A: wheat powdery mildew, preventive spray on wheat seedlings, visual disease rating
Source text: as §1
The test suspension was sprayed to the point of run-off on wheat seedlings. The following day the seedlings were inoculated with a spore dust of Erysiphe graminis f. sp. tritici, (the causal agent of wheat powdery mildew) and incubated in a growth chamber at 20° C. for 8 days, after which time disease ratings were visually made.
as §2

[5] = test system: Botrytis cinerea; assay: Test E: tomato botrytis, preventive spray on tomato seedlings, visual disease rating
Source text: as §1
The test suspension was sprayed to the point of run-off on tomato seedlings. The following day the seedlings were inoculated with a spore suspension of Botrytis cinerea (the causal agent of tomato botrytis) and incubated in saturated atmosphere at 20° C. for 48 h, and then moved to a growth chamber at 27° C. for 3 additional days, after which time disease ratings were visually made.
as §2

Row | Compound | Test D disease control rating ([1]; 200 ppm) [%] | Test C disease control rating ([2]; 200 ppm) [%] | Test B disease control rating ([3]; 200 ppm) [%] | Test A disease control rating ([4]; 200 ppm) [%] | Test E disease control rating ([5]; 200 ppm) [%] | Test D disease control rating ([1]; 40 ppm (*)) | Test B disease control rating ([3]; 40 ppm (*)) | Test A disease control rating ([4]; 40 ppm (*)) | Test E disease control rating ([5]; 40 ppm (*)) | further results
1 | COC(=O)NCc1cc(-n2ncc(-c3ccc(C)cc3OC)n2)ccc1C [Cmpd 7] | 100 | 100 | 100 | 100 | 26 |  |  |  |  | 
2 | COC(=O)NCc1cc(-n2ccc(-c3ccc(OC)cc3F)n2)ccc1C [Cmpd 9] | 100 | 99 | 100 | 100 | 87 |  |  |  |  | 
3 | COC(=O)NCc1cc(-n2ccc(-c3ccc(C)cc3OC)n2)ccc1C [Cmpd 12] | 100 | 97 | 100 | 100 | 95 |  |  |  |  | 
4 | COC(=O)NCc1cc(-n2ccc(-c3ccc(OC)cc3Cl)n2)ccc1C [Cmpd 13] | 100 | 100 | 100 | 100 | 99 |  |  |  |  | 
5 | COC(=O)NCc1cc(-n2ccc(-c3ccc(F)cc3OC)n2)ccc1C [Cmpd 14] | 100 | 100 | 100 | 100 | 97 |  |  |  |  | 
6 | COC(=O)NCc1cc(-c2ccn(-c3ccc(SC)cc3OC)n2)ccc1C [Cmpd 15] | 100 | 77 | 100 | 96 | 64 |  |  |  |  | 
7 | COC(=O)NCc1cc(-c2ccn(-c3ccc(OC)cc3SC)n2)ccc1C [Cmpd 16] | 100 | 85 | 100 | 97 | 97 |  |  |  |  | 
8 | COC(=O)NCc1cc(-c2ccn(-c3ccc(OC)cc3F)n2)ccc1C [Cmpd 19] |  | 100 | 100 | 100 | 37 |  |  |  |  | 
9 | COC(=O)NCc1cc(-c2ccn(-c3ccc(OC)cc3C#N)n2)ccc1C [Cmpd 21] | 100 | 98 | 100 | 96 | 66 |  |  |  |  | 
10 | COC(=O)NCc1cc(-c2ccn(-c3ccc(OC)cc3[N+](=O)[O-])n2)ccc1C [Cmpd 22] | 100 | 100 | 100 | 0 | 85 |  |  |  |  | 
11 | CCc1cc(OC)ccc1-n1ccc(-c2ccc(C)c(CNC(=O)OC)c2)n1 [Cmpd 26] | 100 | 100 | 100 | 99 | 31 |  |  |  |  | 
12 | C#Cc1cc(OC)ccc1-c1cnn(-c2ccc(C)c(CNC(=O)OC)c2)n1 [Cmpd 47] |  |  |  |  |  | 100* % | 100* % | 99* % | 0* % | 
13 | COC(=O)NCc1cc(-n2ncc(-c3ccc(OC)cc3OCC#N)n2)ccc1C [Cmpd 73] |  |  |  |  |  | 100* % | 100* % | 99* % | 0* % | 
14 | C#CCOc1cc(OC)ccc1-c1cnn(-c2ccc(C)c(CNC(=O)OC)c2)n1 [Cmpd 74] |  |  |  |  |  | 100* % | 100* % | 98* % | 8* % | 
15 | C=CCOc1cc(OC)ccc1-c1cnn(-c2ccc(C)c(CNC(=O)OC)c2)n1 [Cmpd 75] |  |  |  |  |  | 100* % | 100* % | 90* % | 8* % | 
16 | COC(=O)NCc1cc(-n2ccc(-c3ccc(OC)cc3C3CC3)n2)ccc1C [Cmpd 82] |  |  |  |  |  | 100* % | 100* % | 99* % | 0* % | 
17 | CCc1cc(OC)ccc1-c1ccn(-c2ccc(C)c(CNC(=O)OC)c2)n1 [Cmpd 83] |  |  |  |  |  | 100* % | 100* % | 99* % | 0* % | 
18 | COC(=O)NCc1cc(-n2ncc(-c3ccc(OC)cc3[N+](=O)[O-])n2)ccc1C [Cmpd 85] |  |  |  |  |  | 100* % | 100* % | 99* % | 0* % | 
19 | CCOc1cc(OC)ccc1-c1cnn(-c2ccc(C)c(CNC(=O)OC)c2)n1 [Cmpd 88] |  |  |  |  |  | 100* % | 100* % | 100* % | 0* % | 
20 | COC(=O)NCc1cc(-n2ccc(-c3ccc(I)cc3Cl)n2)ccc1C [Cmpd 92] |  |  |  |  |  | 100* % | 100* % | 99* % | 33* % | 
21 | COC(=O)NCc1cc(-c2ccn(-c3ccc(C#N)cc3C#N)n2)ccc1C [Cmpd 93] | 64 |  | 0 | 0 | 0 |  |  |  |  | 
22 | COC(=O)NCc1cc(-n2ncc(-c3ccc(I)cc3OC)n2)ccc1C [Cmpd 95] |  |  |  |  |  | 100* % | 100* % | 98* % | 0* % | 
23 | COC(=O)NCc1cc(-n2ncc(-c3ccc(OC)cc3I)n2)ccc1C [Cmpd 96] |  |  |  |  |  | 100* % | 100* % | 99* % | 70* % | 
24 | COC(=O)NCc1cc(-n2ncc(-c3ccc(C)cc3OCC#N)n2)ccc1C [Cmpd 98] |  |  |  |  |  | 100* % | 100* % | 95* % | 6* % | 
25 | C#Cc1ccc(-c2cnn(-c3ccc(C)c(CNC(=O)OC)c3)n2)c(OC)c1 [Cmpd 99] |  |  |  |  |  | 100* % | 100* % | 99* % | 14* % | 
26 | COC(=O)NCc1cc(-n2ncc(-c3ccc(OC)cc3I)[n+]2[O-])ccc1C [Compound 94] |  |  |  |  |  |  |  |  |  | pest or weed control at 40 ppm ([1]; Parastagonospora nodorum, 216 h, 40 ppm (*)): 100%; pest or weed control at 40 ppm ([3]; 192 h, 40 ppm (*)): 100%; pest or weed control at 40 ppm ([4]; Blumeria graminis, 192 h, 40 ppm (*)): 98%; pest or weed control at 40 ppm ([5]; Botrytis cinerea, 120 h, 40 ppm (*)): 11%
27 | COC(=O)NCc1cc(-n2ncc(-c3ccc(C)cc3C)n2)ccc1C [Compound 97] |  |  |  |  |  | 100* % | 100* % | 99* % | 43* % | 
28 | methyl N-[[5-[3-(6-methoxy-2-methyl-3-pyridinyl)-1H-pyrazol-1-yl]-2-methylphenyl]methyl]carbamate [Compound 115] |  |  |  |  |  | 100* % | 100* % | 100* % |  | Test C disease control rating ([2]; 40 ppm (*)): 99* %

Reference: patent publication US20150266850A1 (E.I.DU PONT DE NEMOURS AND COMPANY, priority 2012, published 2015)
